The target of the test is T1, Human CaV2.2 channels (Homo sapiens, UniProt Q00975).
T1 construct: expressed in transfected cells; also stably expressing Kir2.3)
T1 sequence (Q00975 whole entry): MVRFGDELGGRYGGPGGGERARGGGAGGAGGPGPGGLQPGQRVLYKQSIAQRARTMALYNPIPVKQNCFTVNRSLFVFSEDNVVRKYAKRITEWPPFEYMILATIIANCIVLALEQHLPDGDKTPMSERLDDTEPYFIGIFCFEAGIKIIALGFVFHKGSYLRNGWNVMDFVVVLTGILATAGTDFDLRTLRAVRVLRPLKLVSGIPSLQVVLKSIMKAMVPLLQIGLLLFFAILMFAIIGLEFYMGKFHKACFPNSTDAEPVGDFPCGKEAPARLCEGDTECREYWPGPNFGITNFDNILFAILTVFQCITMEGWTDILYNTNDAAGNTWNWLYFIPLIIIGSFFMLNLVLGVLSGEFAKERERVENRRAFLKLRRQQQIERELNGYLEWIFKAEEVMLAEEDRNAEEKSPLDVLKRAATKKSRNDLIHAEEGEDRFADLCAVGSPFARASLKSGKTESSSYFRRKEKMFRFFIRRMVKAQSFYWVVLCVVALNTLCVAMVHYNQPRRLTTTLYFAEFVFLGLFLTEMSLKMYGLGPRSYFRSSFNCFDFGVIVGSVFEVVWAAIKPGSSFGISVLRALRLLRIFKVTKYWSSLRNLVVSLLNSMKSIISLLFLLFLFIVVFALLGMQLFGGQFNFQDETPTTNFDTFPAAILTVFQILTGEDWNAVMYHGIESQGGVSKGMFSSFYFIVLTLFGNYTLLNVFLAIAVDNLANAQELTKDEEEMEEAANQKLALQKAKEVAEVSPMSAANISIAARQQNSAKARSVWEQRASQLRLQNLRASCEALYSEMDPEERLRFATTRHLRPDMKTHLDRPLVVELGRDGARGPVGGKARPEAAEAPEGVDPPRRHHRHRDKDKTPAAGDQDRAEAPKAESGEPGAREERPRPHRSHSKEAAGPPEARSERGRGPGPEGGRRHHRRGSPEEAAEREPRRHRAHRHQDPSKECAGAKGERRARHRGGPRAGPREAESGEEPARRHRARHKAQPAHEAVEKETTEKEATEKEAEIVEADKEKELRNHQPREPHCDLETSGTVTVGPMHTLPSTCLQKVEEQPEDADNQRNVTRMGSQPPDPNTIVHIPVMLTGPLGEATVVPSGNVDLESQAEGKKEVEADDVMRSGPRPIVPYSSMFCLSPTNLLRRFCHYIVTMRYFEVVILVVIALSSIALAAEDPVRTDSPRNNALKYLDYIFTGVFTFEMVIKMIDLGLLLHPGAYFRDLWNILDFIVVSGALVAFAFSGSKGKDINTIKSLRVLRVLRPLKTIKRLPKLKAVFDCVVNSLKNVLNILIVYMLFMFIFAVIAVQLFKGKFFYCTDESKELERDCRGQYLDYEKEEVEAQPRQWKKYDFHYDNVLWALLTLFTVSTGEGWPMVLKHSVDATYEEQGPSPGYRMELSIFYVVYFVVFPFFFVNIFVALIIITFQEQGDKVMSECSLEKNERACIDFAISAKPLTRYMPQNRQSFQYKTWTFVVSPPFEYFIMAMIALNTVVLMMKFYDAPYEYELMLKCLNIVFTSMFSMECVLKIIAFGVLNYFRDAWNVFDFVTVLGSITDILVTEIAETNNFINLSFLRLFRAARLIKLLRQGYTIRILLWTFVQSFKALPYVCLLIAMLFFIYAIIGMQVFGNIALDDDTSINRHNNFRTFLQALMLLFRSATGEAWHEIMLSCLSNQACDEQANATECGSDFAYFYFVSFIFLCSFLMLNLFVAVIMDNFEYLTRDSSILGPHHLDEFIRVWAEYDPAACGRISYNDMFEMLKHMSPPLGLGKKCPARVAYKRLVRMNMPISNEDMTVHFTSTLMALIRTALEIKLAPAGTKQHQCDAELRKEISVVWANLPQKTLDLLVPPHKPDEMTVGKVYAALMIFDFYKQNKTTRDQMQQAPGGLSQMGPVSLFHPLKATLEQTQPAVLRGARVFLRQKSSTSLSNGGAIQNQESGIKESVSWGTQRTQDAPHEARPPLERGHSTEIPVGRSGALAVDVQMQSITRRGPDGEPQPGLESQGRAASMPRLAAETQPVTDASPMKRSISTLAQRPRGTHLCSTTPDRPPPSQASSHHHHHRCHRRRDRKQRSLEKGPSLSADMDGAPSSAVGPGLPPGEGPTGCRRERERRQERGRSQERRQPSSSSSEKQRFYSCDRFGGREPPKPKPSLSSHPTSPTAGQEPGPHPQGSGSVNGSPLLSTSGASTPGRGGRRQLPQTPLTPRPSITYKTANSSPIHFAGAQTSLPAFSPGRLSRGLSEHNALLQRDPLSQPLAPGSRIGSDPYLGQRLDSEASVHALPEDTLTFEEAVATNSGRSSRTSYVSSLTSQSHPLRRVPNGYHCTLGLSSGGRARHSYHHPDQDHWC
The test is described as follows: Fluorescent assay for CaV2.2 channels using potassium depolarization to induce channel opening (FLIPR, Fluo 4). In kind it is cell-based. Conditions: 3 μM test compound; 30 mM KCl alternative assay buffer (inactivated channel state); HEK293 cells; read-out: %-Inhib (CaV2.2) @3 μM @30 mM KCl. An excerpt: In the process, the Ca^2+ influx is quantified in the FLIPR assay with the aid of a Ca^2+-sensitive dye (type Fluo-4, Molecular Probes Europe BV, Leiden, the Netherlands) in a fluorescent imaging plate reader (FLIPR 3, Molecular Devices, Sunnyvale, USA), as described hereinafter.
2. Assay Descriptions and Biological Data: 2.1 Fluorescent Assay for CaV2.2 Channels Using Potassium Depolarization to Induce Channel Opening
Human CaV2.2 channels were stably expressed in HEK293 cells together with alpha2-delta and beta subunits of voltage gated calcium channels. In addition, an inwardly rectifying potassium channel (Kir2.3) was stably expressed in these cells to augment control of the cell membrane potential by the concentration of extracellular potassium ions. Raise of the extracellular potassium concentration leads to depolarization of the membrane potential and thus regulates the voltage dependent state of CaV2.2 channels. For preparation, cells were seeded in black poly-D-lysine coated 96-well plates (Becton Dickinson, Biocoat 4640) in 100 μL medium [500 mL DMEM/F-12 plus Glutamax (Invitrogen 31331-093) plus 5.5 mL MEM NEAA 100× (Invitrogen 11140-035) plus 50 mL FBS decomplemented (Invitrogen 10270-106) plus 200 μg/mL Geneticin (Invitrogen 10131-027) plus 50 μg/mL Hygromycin B (Invitrogen 10687-010) plus 2 μg/mL Blasticidin (anti-bl5b Invivo-Gen) plus 0.2 μg/mL Puromycin (A 11138-03)] at a cell density of 30.000 cells per well. Plates were incubated at 37° C. (5% CO2) for 20 to 23 h. On the day of experiment medium was discarded and cells were loaded with Fluo 4 by addition of 100 μL of basic assay buffer (10 mM HEPES, 1 mM KCl, 149 mM NaCl, 0.8 mM CaC2, 1.7 mM MgCl2, 10 mM Glucose, 0.1% BSA. pH 7.4) containing 2 μM Fluo 4 (Molecular Probes; F-14201), 0.01% pluronic acid (Molecular Probes; P-6866) and 2.5 mM probenecid (Molecular Probes; P36400). Cells were incubated in the dark at 25° C. for 60 min. Then dye containing buffer was discarded and 100 μL basic (1 mM KCl) or alternative (30 mM KCl) assay buffer was added. The alternative assay buffer contained altered concentrations of KCl (30 mM) and NaCl (120 mM) and was used in order to promote the inactivated channel state. After that 25 μL of basic or alternative assay buffer with or without test compound were added and cells were incubated again in the dark at 25° C. for 15 min. Fluorescence intensity was measured on a FLIPR 3 instrument (Molecular Devices Corp., Sunnyvale, Calif.) with excitation at 480 nm and emission at 535 nm. After continuously reading fluorescence for 30 sec, 50 μL of basic assay buffer containing 210 mM KCl (NaCl omitted) were added for depolarization. Peak fluorescent signal intensity was determined and the amplitude of the peak signal, normalized to base line, was used to measure channel inhibition by test compounds.
For `COc1cnc(-c2c(C)c(C(F)(F)F)n(Cc3ccccc3)c2C(=O)N(C)CC(C)(C)C)cn1` [Example 01, 1-benzyl-3-(5-methoxypyrazin-2-yl)-N,4-dimethyl-N-neopentyl-5-(trifluoromethyl)-1H-pyrrole-2-carboxamide], the inhibition at 3 µM fell in the range of 75 to 95%. Regarding `COc1cc(C)c(-c2c(C)c(C(F)(F)F)n(Cc3ccccc3)c2C(=O)N2CCOCC2)cn1` [Example 28, [1-Benzyl-3-(6-methoxy-4-methyl-pyridin-3-yl)-4-methyl-5-(trifluoromethyl)-1H-pyrrol-2-yl]-morpholin-4-yl-methanone], the inhibition at 3 µM lay within 75 to 95%. As to `Cc1cc(Cl)ncc1-c1c(C)c(C(F)(F)F)n(Cc2ccccc2)c1C(=O)N(C)CC(C)(C)C` [Example 20, 1-Benzyl-3-(6-chloro-4-methyl-pyridin-3-yl)-N-(2,2-dimethyl-propyl)-N,4-dimethyl-5-(trifluoromethyl)-1H-pyrrole-2-carboxylic acid amide], the inhibition at 3 µM lay within 75 to 95%. `Cc1c(-c2ccc(F)cn2)c(C(=O)N(C)CC(C)(C)C)n(Cc2ccccc2)c1C(F)(F)F` [Example 31, 1-Benzyl-3-(5-fluoropyridin-2-yl)-N,4-dimethyl-N-neopentyl-5-(trifluoromethyl)-1H-pyrrole-2-carboxamide]: the inhibition at 3 µM was more than 95%. As for `Cc1c(-c2ccc(F)cn2)c(C(=O)N2CCOCC2)n(Cc2ccccc2)c1C(F)(F)F` [Example 36, (1-Benzyl-3-(5-fluoropyridin-2-yl)-4-methyl-5-(trifluoromethyl)-1H-pyrrol-2-yl)(morpholino)methanone], the inhibition at 3 µM was in the range of 75 to 95%. The value for `Cc1cc(C#N)ncc1-c1c(C)c(C(F)(F)F)n(Cc2ccccc2)c1C(=O)N(C)CC(C)(C)C` [Example 19, 1-Benzyl-3-(6-cyano-4-methylpyridin-3-yl)-N,4-dimethyl-N-neopentyl-5-(trifluoromethyl)-1H-pyrrole-2-carboxamide] was 75 to 95%; that for `Cc1c(-c2ncc(Cl)cc2[S+](C)[O-])c(C(=O)N(C)C(C)C)n(Cc2ccccc2)c1C(F)(F)F` (stereo not drawn) [Example 61, 1-Benzyl-3-[5-chloro-3-(methylsulfinyl)-pyridin-2-yl]-N-isopropyl-N,4-dimethyl-5-(trifluoromethyl)-1H-pyrrole-2-carboxylic acid amide] was 75 to 95%; that for `COc1ncc(-c2c(C)c(C(F)(F)F)n(Cc3ccccc3)c2C(=O)N2CCOCC2)cn1` [Example 14, [1-Benzyl-3-(2-methoxy-pyrimidin-5-yl)-4-methyl-5-(trifluoromethyl)-1H-pyrrol-2-yl]-morpholin-4-yl-methanone] was 40 to 75%.

Take `Cc1c(-c2ccc(Cl)s2)c(C(=O)N(C)CC(C)(C)C)n(Cc2ccccc2)c1C(F)(F)F` [Example 13, 1-Benzyl-3-(5-chloro-thiophen-2-yl)-N-(2,2-dimethyl-propyl)-N,4-dimethyl-5-(trifluoromethyl)-1H-pyrrole-2-carboxylic acid amide]: the inhibition at 3 µM lay within 75 to 95%. As to `Cc1c(-c2ncc(Cl)cn2)c(C(=O)N(C)CC(C)(C)C(=O)N(C)C)n(Cc2ccccc2)c1C(F)(F)F` [Example 58, 1-Benzyl-3-(5-chloro-pyrimidin-2-yl)-N-[2-(dimethyl-carbamoyl)-2-methyl-propyl]-N,4-dimethyl-5-(trifluoromethyl)-1H-pyrrole-2-carboxylic acid amide], the inhibition at 3 µM was more than 95%.

Take `Cc1c(-c2ncc(C(F)(F)F)cc2F)c(C(=O)N(C)CC(C)(C)C)n(Cc2ccccc2)c1C(F)(F)F` [Example 17, 1-Benzyl-N-(2,2-dimethyl-propyl)-3-[3-fluoro-5-(trifluoromethyl)-pyridin-2-yl]-N,4-dimethyl-5-(trifluoromethyl)-1H-pyrrole-2-carboxylic acid amide]: the inhibition at 3 µM is 75 to 95%. On to `COc1ncc(-c2c(C)c(C(F)(F)F)n(Cc3ccccc3)c2C(=O)N(C)CC(C)(C)C)cn1` [Example 12, 1-Benzyl-N-(2,2-dimethyl-propyl)-3-(2-methoxy-pyrimidin-5-yl)-N,4-dimethyl-5-(trifluoromethyl)-1H-pyrrole-2-carboxylic acid amide], for which the inhibition at 3 µM is 75 to 95%.

The values are drawn from patent US9562036B2, “Fluoromethyl-substituted pyrrole carboxamides as CaV2.2 calcium channel blockers” (GRÜNENTHAL GMBH, priority 2013, dated 2017).
